Measured values published in ChEMBL document CHEMBL1141038, “Identification of ortho-amino benzamides and nicotinamides as MCHr1 antagonists” (Bioorg Med Chem Lett, 2005).
pIC50: −log10 of the molar value.

What was measured:
[1] = target: T1, Melanin-concentrating hormone receptor 1 (Homo sapiens, UniProt Q99705); test: Inhibitory activity towards melanin-concentrating hormone receptor 1 in IMR32 cells; assay type: cell-based, IMR-32
[2] = Area under the curve in plasma of DIO mice after 10 mg/kg oral dose; assay type: ADME, organism-based; parameters: dose 10 mg/kg, route oral; details: mouse, in vivo
[3] = Plasma half life in DIO mice after 10 mg/kg oral dose; assay type: ADME, organism-based; parameters: dose 10 mg/kg, route oral; details: mouse
[4] = Brain half life in DIO mice after 10 mg/kg oral dose; assay type: ADME, organism-based; parameters: dose 10 mg/kg, route oral; details: mouse
[5] = Brain/plasma in DIO mice after 10 mg/kg oral dose; assay type: ADME, organism-based; parameters: dose 10 mg/kg, route oral; details: mouse, read-out: AUC
[6] = Plasma Cmax in DIO mice after 10 mg/kg oral dose; assay type: ADME, organism-based; parameters: dose 10 mg/kg, route oral; details: mouse
[7] = Area under the curve in brain of DIO mice after 10 mg/kg oral dose; assay type: ADME, organism-based; parameters: dose 10 mg/kg, route oral; details: mouse, in vivo
[8] = target: T1, Melanin-concentrating hormone receptor 1; test: Inhibitory concentration against MCH1R IMR32 cells in FLIPR-based assay; assay type: cell-based, IMR-32
[9] = Brain Cmax in DIO mice after 10 mg/kg oral dose; assay type: ADME, organism-based; parameters: dose 10 mg/kg, route oral; details: mouse
[10] = Plasma peak concentration in DIO mice after 10 mg/kg oral dose; assay type: ADME, organism-based; parameters: dose 10 mg/kg, route oral; details: mouse
[11] = Brain/plasma area under curve in DIO mice after 10 mg/kg oral dose; assay type: ADME, organism-based; parameters: dose 10 mg/kg, route oral; details: mouse, read-out: AUC
[12] = Plasma area under curve in DIO mice after 10 mg/kg oral dose; assay type: ADME, organism-based; parameters: dose 10 mg/kg, route oral; details: mouse, in vivo

T1 sequence (Q99705 whole entry): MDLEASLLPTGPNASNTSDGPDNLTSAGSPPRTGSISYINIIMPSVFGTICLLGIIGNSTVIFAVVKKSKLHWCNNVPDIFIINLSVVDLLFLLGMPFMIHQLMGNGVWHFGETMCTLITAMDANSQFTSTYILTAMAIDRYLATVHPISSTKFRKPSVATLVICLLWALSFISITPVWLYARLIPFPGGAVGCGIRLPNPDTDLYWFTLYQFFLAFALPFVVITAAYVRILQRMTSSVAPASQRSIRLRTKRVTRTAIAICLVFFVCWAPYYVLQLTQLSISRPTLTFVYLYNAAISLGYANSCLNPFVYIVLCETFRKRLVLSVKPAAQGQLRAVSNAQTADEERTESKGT

## CNc1ccc(Cl)cc1C(=O)NC1CCN(Cc2ccc3c(c2)OCO3)CC1
[1]
  pIC50: 6.17

## COc1ccc(NS(C)(=O)=O)c(C(=O)NC2CCN(Cc3ccc4c(c3)OCO4)CC2)c1
[1]
  pIC50: 6.59

## COc1ccc(NC(=O)NC(C)C)c(C(=O)NC2CCN(Cc3ccc(Cl)cc3)CC2)c1
[1]
  pIC50: 6.66

## CC(C)OCCNc1ncc(Cl)cc1C(=O)NC1CCN(Cc2ccc3c(c2)OCO3)CC1
[2]
  AUC: 677 ng·h/mL
[3]
  half-life: 2.3 h
[4]
  half-life: 1.4 h
[5]
  Kp: 0.84
[1]
  pIC50: 8.00
[6]
  Cmax: 283 ng/mL
[7]
  AUC: 570 ng·h/mL
[8]
  pIC50: 7.70
[9]
  Cmax: 276 ng/mL

## CC(C)Nc1ncc(Cl)cc1C(=O)NC1CCN(Cc2ccc3c(c2)CCO3)CC1
[1]
  pIC50: 7.15
[8]
  pIC50: 7.15

## COc1ccc(NCC2CCOC2)c(C(=O)NC2CCN(Cc3ccc4c(c3)OCO4)CC2)c1 (stereo not drawn)
[1]
  pIC50: 7.70
[8]
  pIC50: 7.40

## COc1ccc(NCC2CCCCC2)c(C(=O)NC2CCN(Cc3ccc4c(c3)OCO4)CC2)c1
[1]
  pIC50: 7.30
[8]
  pIC50: 5.97

## O=C(Nc1ccc(Cl)cc1C(=O)NC1CCN(Cc2ccc3c(c2)OCO3)CC1)c1ccccn1
[1]
  pIC50: 7.70
[8]
  pIC50: 6.43

## COc1ccc(NCc2c[nH]cn2)c(C(=O)NC2CCN(Cc3ccc4c(c3)OCO4)CC2)c1
[1]
  pIC50: 7.70
[8]
  pIC50: 7.30

## Nc1ccc(Cl)cc1C(=O)NC1CCN(Cc2ccc3c(c2)OCO3)CC1
[1]
  pIC50: 8.05
[8]
  pIC50: 6.70

## COc1ccc(CNc2ncc(Cl)cc2C(=O)NC2CCN(Cc3ccccc3)CC2)cc1
[1]
  pIC50: 8.00
[8]
  pIC50: 7.52

## CC(=O)c1ccc(CN2CCC(NC(=O)c3cc(Cl)ccc3NCc3c[nH]cn3)CC2)cc1
[1]
  pIC50: 8.00
[8]
  pIC50: 6.62

## O=C(NC1CCN(Cc2ccc3c(c2)OCO3)CC1)c1cccc(Cl)c1
[1]
  pIC50: 6.96

## COc1ccc(NCC2CC2)c(C(=O)NC2CCN(Cc3ccc4c(c3)OCO4)CC2)c1
[1]
  pIC50: 8.00
[8]
  pIC50: 7.05

## COc1ccc(NCc2c[nH]cn2)c(C(=O)NC2CCN(Cc3ccc4ccccc4c3)CC2)c1
[1]
  pIC50: 6.41
[8]
  pIC50: 5.71

## O=C(NC1CCN(Cc2ccc3c(c2)OCO3)CC1)c1cc(Cl)ccc1O
[1]
  pIC50: 7.10
[8]
  pIC50: 6.29

## COc1ccc(CN2CCC(NC(=O)c3cc(Cl)cnc3NCC(C)C)CC2)cc1F
[1]
  pIC50: 6.80

## O=C(NC1CCN(Cc2ccc3c(c2)OCO3)CC1)c1cc(Cl)cnc1NCc1cscn1
[1]
  pIC50: 8.40
[8]
  pIC50: 8.10

## O=C(NC1CCN(Cc2ccc3c(c2)OCO3)CC1)c1cc(Cl)cnc1NC[C@H]1CCCO1
[1]
  pIC50: 7.30
[8]
  pIC50: 7.70

## CC(C)OCCCNc1ncc(Cl)cc1C(=O)NC1CCN(Cc2ccc3c(c2)OCO3)CC1
[1]
  pIC50: 8.15
[8]
  pIC50: 7.22

## O=C(NC1CCN(Cc2ccc3ccccc3c2)CC1)c1cc(Cl)ccc1NCc1nccs1
[1]
  pIC50: 8.22
[8]
  pIC50: 7.40

## COc1ccc(NCc2cncn2C)c(C(=O)NC2CCN(Cc3ccc4c(c3)OCO4)CC2)c1
[1]
  pIC50: 7.05
[8]
  pIC50: 7.00

## COc1ccc(NCc2c[nH]cn2)c(C(=O)NC2CCN(Cc3ccc4ncccc4c3)CC2)c1
[1]
  pIC50: 7.15
[8]
  pIC50: 7.00

## O=C(NC1CCN(Cc2ccc3c(c2)OCO3)CC1)c1cc(Cl)cnc1NCc1nccs1
[1]
  pIC50: 8.22
[8]
  pIC50: 8.05

## O=C(NC1CCN(Cc2ccc3c(c2)OCO3)CC1)c1cc(Cl)cnc1Cl
[1]
  pIC50: 5.70

## CC(C)Nc1ncc(Cl)cc1C(=O)NC1CCN(Cc2ccc3c(c2)OCO3)CC1
[1]
  pIC50: 7.70
[8]
  pIC50: 7.52

## O=C(NC1CCN(Cc2ccc(Cl)cc2)CC1)c1cc(Cl)cnc1NCC1CC1
[1]
  pIC50: 6.39

## O=C(NC1CCN(Cc2ccc3c(c2)OCO3)CC1)c1cc(Cl)ccc1NCc1nccs1
[3]
  half-life: 3.8 h
[4]
  half-life: 7.8 h
[1]
  pIC50: 8.70
[10]
  Cmax: 2030 ng/mL
[11]
  Kp: 0.7
[8]
  pIC50: 7.80
[9]
  Cmax: 814 ng/mL
[12]
  AUC: 4100 ng·h/mL

## CC(C)OCCNc1ncc(-c2cccs2)cc1C(=O)NC1CCN(Cc2ccc3c(c2)OCO3)CC1
[1]
  pIC50: 6.72

## COc1ccc(NCc2cncnc2)c(C(=O)NC2CCN(Cc3ccc4c(c3)OCO4)CC2)c1
[1]
  pIC50: 8.05
[8]
  pIC50: 7.15

## O=C(NC1CCN(Cc2ccc(Cl)cc2)CC1)c1cc(Cl)cnc1NCc1ccco1
[1]
  pIC50: 7.22
[8]
  pIC50: 5.91

## COc1ccc(NS(C)(=O)=O)c(C(=O)NC2CCN(Cc3ccc(Cl)cc3)CC2)c1
[1]
  pIC50: 6.80

## COc1ccc(NCc2ncc[nH]2)c(C(=O)NC2CCN(Cc3ccc4c(c3)OCO4)CC2)c1
[1]
  pIC50: 7.15
[8]
  pIC50: 6.66

## O=C(NC1CCN(Cc2ccc3c(c2)OCO3)CC1)c1ccccc1NCc1c[nH]cn1
[1]
  pIC50: 6.39

## O=C(NC1CCN(Cc2ccc3c(c2)OCO3)CC1)c1cc(Cl)cnc1NCc1cnc[nH]1
[1]
  pIC50: 8.05
[8]
  pIC50: 7.70

## CC(C)CNc1ncc(Cl)cc1C(=O)NC1CCN(Cc2ccc3c(c2)OCO3)CC1
[1]
  pIC50: 7.70
[8]
  pIC50: 7.30

## O=C(NC1CCN(Cc2ccc3ncccc3c2)CC1)c1cc(Cl)ccc1NCc1nccs1
[1]
  pIC50: 7.70
[8]
  pIC50: 7.52

## CS(=O)(=O)Nc1ccc(Cl)cc1C(=O)NC1CCN(Cc2ccc3c(c2)OCO3)CC1
[1]
  pIC50: 6.25

## COc1ccc(NCc2ccccn2)c(C(=O)NC2CCN(Cc3ccc4c(c3)OCO4)CC2)c1
[1]
  pIC50: 7.70
[8]
  pIC50: 7.15

## O=C(NC1CCN(Cc2ccc3c(c2)OCO3)CC1)c1cc(Cl)cnc1NC1CCC1
[1]
  pIC50: 7.15
[8]
  pIC50: 7.52

## CC(C)OCCNc1ncc(-c2ccncc2)cc1C(=O)NC1CCN(Cc2ccc3c(c2)OCO3)CC1
[1]
  pIC50: 6.85

## O=C(NC1CCN(Cc2ccc3c(c2)OCO3)CC1)c1cc(Cl)cnc1NCC1CC1
[1]
  pIC50: 7.70
[8]
  pIC50: 7.70

## O=C(NC1CCN(Cc2ccc3c(c2)OCO3)CC1)c1cc(Cl)cnc1NCc1ncc[nH]1
[1]
  pIC50: 7.70
[8]
  pIC50: 7.15

## O=C(NC1CCN(Cc2ccc(Cl)cc2)CC1)c1cc(Cl)cnc1NC1CCC1
[1]
  pIC50: 5.70
